This is an account of results in patent publication US20240287037A1, “CYCLOALKYL COMPOUNDS AND PHARMACEUTICAL COMPOSITIONS THAT MODULATE IKZF2” (Plexium, Inc., priority 2021, published 2024).

Usually EC50 stands for the concentration giving half of the maximal effect. A word on the DC50: it is the midpoint of the concentration-degradation curve.

The target of assay [1] is human E3 ligase component cereblon (CRBN) (Homo sapiens (Human), UniProt Q96SW2). The assay can be described thus: Cereblon (CRBN) target engagement, NanoBRET TE Intracellular E3 Ligase Assay in transfected HEK-293T cells. As for the experimental part:
HEK-293T cells were harvested ca. 75% confluent with trypsin and plated (500,000 cells/well) in a 6-well tissue culture plate in 2 mL of Dulbecco's Modified Eagle Medium (DMEM)^+10% Fetal Bovine Serum (FBS) and incubated overnight at 37° C.
The NanoLue-CRBN fusion vector (Nluc-CRBN; Promega) contains the coding region of human E3 ligase component cereblon (CRBN) fused to the C-terminus of the NanoLuc luciferase coding region. A mixture of 10 ng Nluc-CRBN and 990 ng DDB1 Expression Vector (Promega) was added to 125 μL Opti-Minimum Essential Medium (Opti-MEM™; Thermo Fisher) along with 2 μL P3000 reagent (Thermo Fisher) in a 1.5 mL epppendorf tube. This solution was added to Lipofectamine 3000 transfection reagent (5 μL; Thermo Fisher) in Opti-MEM (125 μL), mixed well, and incubated for 15 minutes at room temperature. The transfection mixture was added dropwise to cells and incubated overnight at 37° C., 5% CO2. Following transfection, cells were washed once with PBS, and trypsin (250 μL) was added and incubated 30-45 see to dislodge cells. Complete media (2 mL) was added to resuspend cells to form a single cell suspension. Cells were centrifuged at 320×g for 5 min at room temperature, the supernatant was removed, and the cell pellet resuspended in Opti-MEM (3 mL; wash step repeated ×2). After final resuspension in 5 mL Opti-MEM, cells were counted and resuspended at 200,000 cells/mL in Opti-MEM.
Cereblon target engagement was monitored by Bioluminescence Resonance Energy Transfer (BRET) in transfected HEK-293T cells using the NanoBRET TE Intracellular E3 Ligase Assay (Promega). Briefly, 384-well plates (white opaque plates, Corning 3574, low binding surface) were seeded with transfected HEK-293T cells (38 μl/well). 2 μL of 10 μM CRBN tracer (diluted 1:5 in Tracer Dilution Buffer) was added to each well. Plates were centrifuged at 320×g for 1 min at room temperature. […] Plates were shaken for 2 minutes on a microplate shaker to mix compounds. Plates were centrifuged at 320×g for 1 min at room temperature, and subsequently incubated for 2 hours at 37° C.
After incubation, plates were allowed to cool to room temperature for 15 minutes. 20 μL of 3X Complete NanoBRET™ Nano-Glo® Substrate plus Inhibitor Solution (Promega, 1:166 Substrate and 1:500 dilution of Extracellular NanoLuc® Inhibitor diluted in Opti-MEM) were added to each well, Plates were incubated with shaking at room temperature for 3 minutes covered with foil. Plates were read on a CLARIOstar microplate reader (BMG LabTech), measuring at 450 nm (donor emission) and 610 nm (acceptor emission). The IC50 values were determined by regression to best fit four-parameter logistic curves using GraphPad Prism.

Assay [2] deals with GSPT1 (Homo sapiens (Human), UniProt P15170+Q96SW2). The assay can be described thus: GSPT1 reporter degradation assay (HEK293 hGSPT1 HiBiT-tagged cells). The class given is cell-based. Particulars: 24 hour incubation. As to the method: HEK293_hGSPT1_HiBiT-tagged cells were generated using CRISPR-Cas12a technology. Briefly, ˜400,000 HEK293 cells were transiently co-transfected with precomplexed ribonuclear proteins (RNPs) consisting of […] of crRNA (IDT), […] of Cas12a protein (IDT), 3 μg of ssODN donor (IDT; AltRTM modifications), 78 pmol of electroporation enhancer (IDT), and 200 ng of pMaxGFP (Lonza). The transfection was performed via nucleofection (Lonza, 4D-Nucleofector X-unit) using solution P3 and program CM-130 in a (20 μL) cuvette. Five days post-nucleofection, cells were single-cell-sorted for GFP+ (transfected) cells by FACs in 96-well plates and clonally selected. Clones were screened and verified for the desired modification via targeted deep sequencing using gene-specific primers with partial Illumina adapter overhangs as previously described. In brief, clonal cell pellets were harvested, lysed, and used to generate gene-specific amplicons with partial Illumina adapters in PCR #1. Amplicons were indexed in PCR #2 and pooled with other targeted amplicons for other loci to create sequence diversity. Additionally, 10% PhiX sequencing control V3 (Illumina) was added to the pooled amplicon library prior to running the sample on a Miseq Sequencer System (Illumina) to generate paired 2×250 bp reads. Samples were demultiplexed using the index sequences, fastq files were generated, and NGS analysis was performed using CRIS.py.
The GSTP1 degradation assay was carried out by harvesting the HEK 293T reporter cell lines and resuspending the cells in media formulated for reduced background fluorescence (FluoroBrite; Thermo Fisher). The respective cell lines were seeded at a density of 8,000 cells/well into white-opaque 384-well optical grade assay tissue culture plates (Greiner 781080-20). The cells were incubated overnight at 37° C. to allow for attachment to the assay plate. Dilutions of the compounds were prepared in DMSO from 10 mM compound stocks. […] Plates were centrifuged at 320×g for 2 minutes at room temperature, and subsequently incubated at 37° C.
After 24 hour incubation with the compounds, the plates were allowed to cool to room temperature for 10 minutes. 30 μL of HiBiT lytic buffer+1:50 HiBiT substrate Solution were added to each well. Plates were centrifuged at 320×g for 2 minutes at room temperature and then incubated with shaking at room temperature for 10 minutes covered with foil. Plates were read on a CLARIOstar microplate reader (BMG LabTech), measuring at 450 nm (donor emission) and 610 nm or 630 nm (acceptor emission). The DC50 values were determined by regression to best fit four-parameter logistic curves using GraphPad Prism.
(In general: HiBiT is a short tag that completes a luciferase, so light tracks the accessible tagged protein.)

Where [3] appears, read: Table 3, 2 hours at 37° C., read-out: CRBN Binding EC50.
Setting [4] is: second (untitled) table after Table 3, read-out: CRBN Binding EC50.

SMILES strings stand for the structures. Like-named read-outs stand apart in the source and are kept apart here.

Chain of human E3 ligase component cereblon (CRBN) (Q96SW2 whole entry): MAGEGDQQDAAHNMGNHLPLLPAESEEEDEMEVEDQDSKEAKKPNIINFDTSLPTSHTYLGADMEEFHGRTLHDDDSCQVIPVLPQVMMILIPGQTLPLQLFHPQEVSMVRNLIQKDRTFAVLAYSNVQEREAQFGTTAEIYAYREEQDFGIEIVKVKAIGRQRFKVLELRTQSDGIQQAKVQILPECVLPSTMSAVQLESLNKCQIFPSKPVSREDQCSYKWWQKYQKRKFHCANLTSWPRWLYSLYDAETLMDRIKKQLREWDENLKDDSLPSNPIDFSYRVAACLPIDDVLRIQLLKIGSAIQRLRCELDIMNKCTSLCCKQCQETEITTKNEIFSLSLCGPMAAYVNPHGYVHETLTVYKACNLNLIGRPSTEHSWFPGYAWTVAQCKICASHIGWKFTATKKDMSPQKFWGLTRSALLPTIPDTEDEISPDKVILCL
Chain of human E3 ligase component cereblon (CRBN) (Q16531 whole entry partner): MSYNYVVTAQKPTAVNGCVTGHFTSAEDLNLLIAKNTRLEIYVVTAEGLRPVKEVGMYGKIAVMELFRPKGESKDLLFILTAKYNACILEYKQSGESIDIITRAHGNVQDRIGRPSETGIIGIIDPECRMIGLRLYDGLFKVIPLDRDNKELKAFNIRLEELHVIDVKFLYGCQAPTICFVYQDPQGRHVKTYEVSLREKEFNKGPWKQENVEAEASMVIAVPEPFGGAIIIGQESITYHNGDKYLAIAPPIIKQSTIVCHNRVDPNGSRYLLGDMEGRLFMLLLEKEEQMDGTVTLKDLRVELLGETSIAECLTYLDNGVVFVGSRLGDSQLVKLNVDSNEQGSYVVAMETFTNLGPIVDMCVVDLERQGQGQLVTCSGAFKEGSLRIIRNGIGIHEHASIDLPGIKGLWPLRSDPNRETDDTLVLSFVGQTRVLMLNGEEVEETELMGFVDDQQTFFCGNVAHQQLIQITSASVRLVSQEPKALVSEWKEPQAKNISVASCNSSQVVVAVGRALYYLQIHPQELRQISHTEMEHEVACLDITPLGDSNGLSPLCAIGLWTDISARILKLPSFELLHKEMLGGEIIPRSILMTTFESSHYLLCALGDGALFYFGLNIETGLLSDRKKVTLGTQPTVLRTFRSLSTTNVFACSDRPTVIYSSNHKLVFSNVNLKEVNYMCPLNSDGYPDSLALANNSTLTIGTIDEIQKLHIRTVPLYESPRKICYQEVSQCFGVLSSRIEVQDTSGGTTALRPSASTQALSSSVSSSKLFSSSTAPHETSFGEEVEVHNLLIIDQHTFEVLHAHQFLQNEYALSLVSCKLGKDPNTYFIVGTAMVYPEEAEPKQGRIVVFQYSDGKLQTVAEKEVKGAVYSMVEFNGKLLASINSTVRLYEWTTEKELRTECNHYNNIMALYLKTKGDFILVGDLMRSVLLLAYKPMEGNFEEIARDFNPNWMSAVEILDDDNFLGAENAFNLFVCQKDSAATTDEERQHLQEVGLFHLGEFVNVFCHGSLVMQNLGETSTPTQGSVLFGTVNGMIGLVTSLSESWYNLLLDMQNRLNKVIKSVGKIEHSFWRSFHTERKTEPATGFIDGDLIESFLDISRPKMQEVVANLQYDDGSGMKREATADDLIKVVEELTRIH
Chain of GSPT1 (P15170 whole entry): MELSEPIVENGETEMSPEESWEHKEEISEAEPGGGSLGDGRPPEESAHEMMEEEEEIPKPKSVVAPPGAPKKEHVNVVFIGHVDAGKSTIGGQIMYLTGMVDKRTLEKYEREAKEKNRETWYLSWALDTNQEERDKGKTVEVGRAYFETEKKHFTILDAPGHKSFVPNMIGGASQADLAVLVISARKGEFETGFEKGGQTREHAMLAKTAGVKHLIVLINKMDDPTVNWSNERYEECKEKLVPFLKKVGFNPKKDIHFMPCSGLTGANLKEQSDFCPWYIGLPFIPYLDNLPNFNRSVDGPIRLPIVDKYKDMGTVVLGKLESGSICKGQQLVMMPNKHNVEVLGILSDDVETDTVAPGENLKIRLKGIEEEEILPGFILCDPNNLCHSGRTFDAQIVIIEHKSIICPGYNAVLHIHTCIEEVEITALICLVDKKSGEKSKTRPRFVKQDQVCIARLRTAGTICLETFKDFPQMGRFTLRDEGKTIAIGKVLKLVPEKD
Chain of GSPT1 (Q96SW2 whole entry): as the sequence (Q96SW2 whole entry) above
Chain of GSPT1 (Q16531 whole entry partner): as the sequence (Q16531 whole entry partner) above

For the compound `O=C1CCC(N2Cc3cc(O[C@H]4CCCC[C@@H]4N4CC(C5CCCC(F)(F)C5)C4)ccc3C2=O)C(=O)N1` (stereo partly drawn) [Compound 20, 3-(5-(((1S,2S)-2-(3-(3,3-difluorocyclohexyl)azetidin-1-yl)cyclohexyl)oxy)-1-oxoisoindolin-2-yl)piperidine-2,6-dione], the EC50 in assay [1] (setting [3]) and in assay [1] (setting [4]) was 4 nM in each case. The DC50 in assay [2] is above 30000 nM.

As for `O=C1CCC(N2Cc3cc(O[C@H]4CCCC[C@@H]4N4CC(C5CCC(OC(F)F)CC5)C4)ccc3C2=O)C(=O)N1` (stereo partly drawn) [Compound 21, 3-(5-(((1S,2S)-2-(3-(4-(difluoromethoxy)cyclohexyl)azetidin-1-yl)cyclohexyl)oxy)-1-oxoisoindolin-2-yl)piperidine-2,6-dione], the EC50 in assay [1] (setting [3]) and in assay [1] (setting [4]) was 1 nM each time. This compound also had a DC50 in assay [2] above 30000 nM.

In the case of `O=C1CCC(N2Cc3cc(O[C@H]4CCC[C@@H]4N4CC(C5CC5)C4)ccc3C2=O)C(=O)N1` (stereo partly drawn) [Compound 22, 3-(5-(((1S,2S)-2-(3-cyclopropylazetidin-1-yl)cyclopentyl)oxy)-1-oxoisoindolin-2-yl)piperidine-2,6-dione], the EC50 in assay [1] (setting [3]) and in assay [1] (setting [4]) was 22 nM each time. The compound also registered a DC50 in assay [2] above 30000 nM.

As to `O=C1CCC(N2Cc3c(ccc(O[C@H]4CCCC[C@@H]4N4CC(C5CC5)C4)c3F)C2=O)C(=O)N1` (stereo partly drawn) [Compound 24, 3-(5-(((1S,2S)-2-(3-cyclopropylazetidin-1-yl)cyclohexyl)oxy)-4-fluoro-1-oxoisoindolin-2-yl)piperidine-2,6-dione], the EC50 in assay [1] (setting [3]) and in assay [1] (setting [4]) was 49 nM each time. The compound further gave a DC50 in assay [2] above 30000 nM.

`O=C1CCC(N2Cc3c(ccc(O[C@H]4CCCC[C@@H]4N4CC(C5CCC5)C4)c3F)C2=O)C(=O)N1` (stereo partly drawn) [Compound 25, 3-(5-(((1S,2S)-2-(3-cyclobutylazetidin-1-yl)cyclohexyl)oxy)-4-fluoro-1-oxoisoindolin-2-yl)piperidine-2,6-dione]: the EC50 in assay [1] (setting [3]) and in assay [1] (setting [4]) was 28 nM each time. The compound also displayed a DC50 in assay [2] above 30000 nM.

As to `O=C1CCC(N2Cc3cc(O[C@H]4CCCC[C@@H]4N4CC(C5CC5)C4)c(F)cc3C2=O)C(=O)N1` (stereo partly drawn) [Compound 26, 3-(5-(((1S,2S)-2-(3-cyclopropylazetidin-1-yl)cyclohexyl)oxy)-6-fluoro-1-oxoisoindolin-2-yl)piperidine-2,6-dione], the EC50 in assay [1] (setting [3]) and in assay [1] (setting [4]) was 16 nM each time. In assay [2], this compound had a DC50 above 30000 nM.

`O=C1CCC(N2Cc3cc(O[C@H]4CCCC[C@@H]4N4CC(C5CCC5)C4)c(F)cc3C2=O)C(=O)N1` (stereo partly drawn) [Compound 27, 3-(5-(((1S,2S)-2-(3-cyclobutylazetidin-1-yl)cyclohexyl)oxy)-6-fluoro-1-oxoisoindolin-2-yl)piperidine-2,6-dione]: the EC50 in assay [1] (setting [3]) and in assay [1] (setting [4]) was 18 nM throughout. This compound also yielded a DC50 in assay [2] above 30000 nM.
